Experimental data from patent US12351574B2, “Selective ligands for modulation of GIRK channels” (Northeastern University, priority 2018, dated 2025).

Experiments:
[1] = test system: fear memories (freezing behavior); test: cued fear conditioning test; assay type: in vivo, rat; conditions: for effect on fear acquisition (in words): FIG. 62A
Experimental: Cued fear conditioning test: On day 1, animals were habituated to the sound attenuating fear conditioning chamber (Kinder Scientific, Poway, CA) for 10 min. Between each animal, the chamber was cleaned with 70% ethanol. On day 2, acquisition of fear was achieved by placing rats back into the chamber for a 120 s acclimation period and then five pairings (120 s inter-trial interval) of the conditioned stimulus (CS; 20 s, 80 dB) followed immediately by the unconditioned shock stimulus (US; 500 ms, 0.8 mA foot shock). On day 3, CS consolidation was assessed by placing the rats back into the chamber with a 120 s acclimation period followed by five presentations of the CS only (20 s, 80 dB) with 120 s inter-trial-intervals. On day 4, extinction was assessed by presenting a 120 s acclimation period followed by 20 trials of the CS (20 s, 80 dB) with 120 s inter-trial-intervals. The same experimenter (SDF) handled the rats during all sessions and was blinded to the treatment. All trials were digitally video-recorded. For this behavioral test and all others, blind scoring was aided by modification of video file names by AIM. Freezing behavior (no visible signs of movement) was scored by SDF during the sound presentation and converted to percentage of total time. The acquisition, expression, extinction and recall of fear memories were assessed in a […] learning paradigm (modified from Johnson, P. L., et al., Pharmacological depletion of serotonin in the basolateral amygdala complex reduces anxiety and disrupts fear conditioning, Pharmacol Biochem Behav, 2015. 138: p. 174-9). Rats were habituated to the sound attenuating fear conditioning chamber on day 1 (Kinder Scientific, Poway, CA) for 10 min. For all experiments, the chamber was cleaned between animals. On day 2 acquisition of fear occurred where the rats were placed back into the chamber and after a 120 s acclimation period received 5 pairings (120 s inter-trial interval) of the conditioned stimulus (CS; 20 s, 80 dB) followed immediately by the unconditioned shock stimulus (US; 500 ms, 0.8 mA foot shock). On day 3 conditioned stimulus (CS) consolidation was assessed by placing the rats back into the chamber with a 120 s acclimation period followed by 5 presentations of the CS only (20 s, 80 dB) separated by 120 s. On day 4 extinction was assessed which consisted of the 120 s acclimation period followed by 20 trials of the CS (20 s, 80 dB) separated by 120 s intervals. On day 5, all animals were assessed for the recall. Animals were placed in the chamber and were presented with 5 tones. The same experimenter handled the rats during all sessions and was blinded to the phenotype. All trials were digitally video-recorded. Freezing behavior (no visible signs of movement) was scored by a blind scorer during the sound presentation and converted to percentage of total time.

[2] = target: T1, GIRK1/4 (Homo sapiens, UniProt P48544+P48549); test: diC8-PIP2 concentration-response (NPo), inside-out macropatches from Xenopus oocytes, GIRK1/4; assay type: cell-based; parameters: expressed in transfected cells; host or cells: Xenopus laevis oocytes (cRNA injection); conditions: in the presence of 10 μM compound; for apparent affinity of GIRK1/4 channels for diC8-PIP2: control 48.4±8 μM
T1 sequence (P48549 1-501): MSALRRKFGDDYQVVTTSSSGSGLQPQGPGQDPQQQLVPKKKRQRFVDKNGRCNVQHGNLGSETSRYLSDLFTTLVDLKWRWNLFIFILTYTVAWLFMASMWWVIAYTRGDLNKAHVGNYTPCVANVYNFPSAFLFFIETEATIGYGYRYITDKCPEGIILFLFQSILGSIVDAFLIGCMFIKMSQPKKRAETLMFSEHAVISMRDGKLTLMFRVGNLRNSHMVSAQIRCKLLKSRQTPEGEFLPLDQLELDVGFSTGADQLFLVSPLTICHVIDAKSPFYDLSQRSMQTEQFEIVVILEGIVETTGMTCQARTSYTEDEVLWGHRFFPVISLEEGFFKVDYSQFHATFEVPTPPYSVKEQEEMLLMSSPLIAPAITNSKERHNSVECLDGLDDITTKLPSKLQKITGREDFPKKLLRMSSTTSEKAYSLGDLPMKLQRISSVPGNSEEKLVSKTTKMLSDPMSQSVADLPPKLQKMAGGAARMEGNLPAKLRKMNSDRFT
T1 sequence (P48544 1-419): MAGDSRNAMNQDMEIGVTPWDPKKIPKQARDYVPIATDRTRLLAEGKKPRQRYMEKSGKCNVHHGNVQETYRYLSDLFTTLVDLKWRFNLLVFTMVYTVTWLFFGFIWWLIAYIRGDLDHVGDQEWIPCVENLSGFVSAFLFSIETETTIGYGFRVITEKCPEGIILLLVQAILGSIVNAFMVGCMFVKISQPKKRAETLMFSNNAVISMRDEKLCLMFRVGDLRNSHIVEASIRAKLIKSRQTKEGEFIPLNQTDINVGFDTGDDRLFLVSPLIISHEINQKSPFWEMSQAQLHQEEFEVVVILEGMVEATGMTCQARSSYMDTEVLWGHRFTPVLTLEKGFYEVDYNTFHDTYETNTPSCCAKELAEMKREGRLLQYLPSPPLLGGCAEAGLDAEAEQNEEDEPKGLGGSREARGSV
Excerpt: The inventors next turned to inside-out macropatches from Xenopus oocytes to compare changes in the PIP2 sensitivity by examining diC8 concentration-responses in the absence and presence of saturating concentrations of each of the activating compounds. […] In FIG. 14B, the control plot overlays the GAT1508 and GAT1521 plots; only ML297 was able to left-shift the sensitivity of GIRK1/4 heteromers to PIP2, while both GAT1508 and GAT1521 were ineffective in changing the sensitivity of these heteromers to PIP2.
Xenopus laevis oocyte expression: Plasmid DNAs of GIRK channel subunits were linearized prior to in vitro transcription. Capped RNAs were transcribed using mMESSAGE mMACHINE T7 Transcription Kit (Thermo Fisher Scientific). Xenopus oocytes were surgically extracted, dissociated and defolliculated by collagenase treatment, and microinjected with 50 nl of a water solution containing 1 ng of each GIRK subunit RNA. For TEVC experiments, oocytes were kept 2 days at 17° C. before recording, while for NPo experiments oocytes were incubated for up to 4 days at 17° C.
Oocyte macropatch studies: Macropatch GIRK channel activity was recorded from devitellinized oocytes under the inside-out mode of standard patch clamp methods using an AM2400 patch clamp amplifier (A-M systems). […] Oocytes were bathed with a solution comprising (in mM): 96 KCl, 5 EGTA, 1 MgATP and 10 HEPES (pH 7.4). Current amplitudes were measured at −80 mV with a sampling rate of 10 kHz. Data were analyzed using WinEDR and Clampfit software (Molecular Devices).

[3] = 10 or 30 mg/kg i.p., FIGS. 27, 28
[4] = 10 or 30 mg/kg i.p., after acquisition and 30 min prior to consolidation, FIGS. 27, 28
[5] = 30 mg/kg, vehicle tone 5 (GAT1521 study), tone 6 (ML297 study)

Structure (SMILES) | effect on fear acquisition (in words) ([1]; 10 mg/kg) | effect on fear consolidation (in words) ([1]; 10 mg/kg, FIG. 62B) | effect on fear acquisition (in words) ([1]; 30 mg/kg, early pairings) | extinction of fear memories versus vehicle (in words) [1, 3] | effect on consolidation of fear memories (in words) [1, 4] | recall of the freezing behavior (in words) ([1]; FIG. 62E) | tone by which freezing was significantly reduced during extinction ([1]; GAT1508 group, control group tone 7) | fear extinction of the freezing behavior (in words) ([1]; follow-up experiments, FIGS. 62C-62D, 63) | apparent affinity of GIRK1/4 channels for diC8-PIP2 [2] | tone by which freezing was significantly reduced during extinction [1, 5] | effect on consolidation of fear memories (in words) ([1]; 30 mg/kg, FIG. 29) | extinction of fear memories versus controls (in words) ([1]; 30 mg/kg, FIG. 29) | EMAX of diC8-PIP2 response (NPo), GIRK1/4 ([2]; control 4.4±0.2)
Cc1cc(NC(=O)Nc2ccc(Br)s2)n(-c2ccccc2)n1 [GAT1508, 1-(5-bromothiophen-2-yl)-3-(3-methyl-1-phenyl-1H-pyrazol-5-yl)urea] | no significant effects | no significant effects | significant reductions in fear acquisition | extinguished fear memories much faster | no effects | No significant changes | 4 tone | more efficient extinction of the freezing behavior | 46 ± 7.4 µM |  |  |  | 
Cc1cc(NC(=O)Nc2ccc(C)s2)n(-c2ccccc2)n1 [GAT1521, 1-(3-methyl-1-phenyl-1H-pyrazol-5-yl)-3-(5-methylthiophen-2-yl)urea] |  |  |  | significantly reduced overall freezing during extinction | affected consolidation of fear memories |  |  |  | 51 ± 6.5 µM | 3 tone |  |  | 
Cc1cc(NC(=O)Nc2ccc(F)c(F)c2)n(-c2ccccc2)n1 [ML297, reference compound] |  |  |  |  |  |  |  |  | 17.4 ± 2 µM | 6 tone | no effect | no significant differences | 5.4±0.2
